Results from US11578013B2, “Nitrification inhibitors” (Lincoln University, priority 2020, dated 2023).

Tests used:
[1] = test system: nitrification in the soil; experiment: Laboratory soil incubation, Templeton sandy loam with synthetic cow urine, nitrate-N; conditions: day 30
Protocol: A Templeton sandy loam was used in this experiment. 500 g of soil (dry weight basis) was packed into a pottle. 50 mL of synthetic cow urine with an N concentration of 7 g N/L (comprising about 87% urea-N and 13% glycine-N) was applied to the soil (equivalent to 700 kg N/ha on weight basis, assuming bulk density of 1 g/cm^3 in the top 10 cm of soil). The 700 kg N/ha application was used to simulate the urine-N application rate under a typical dairy cow urine patch in a grazed pasture.
Control treatments also added to soil were: • urine alone (50 mL); • DMSO (equivalent to 0.9 mL/500 g soil)+urine (50 mL) to determine the effect of DMSO on nitrification rate; • water alone (50 mL) (simulating areas of the soil where no urine was deposited).
Pottles were covered with lids with breathing holes to allow for gas exchange during incubation. Pottles were incubated at 12° C. Soil moisture content was maintained at field capacity by adjusting on weight basis twice a week.
Soil samples were collected and were then thoroughly mixed and subsamples were extracted in a potassium chloride solution and analysed for mineral-N. Soil moisture content was also determined. Samples were taken at 30 days after the start of incubation. […]

[2] = test system: nitrification; experiment: Table 1 summary: compounds found to work or not work as nitrification inhibitors, Inhib(%); set-up: concentration or dose not given beside the values; conditions: test and rate not given
Protocol: The phenotypic screening involved assessing the nitrification inhibition potency of the selected 5000 compounds against a key ammonia oxidizing bacterium responsible for ammonia oxidation in the soil, Nitrosomonas europaea, in 96-well microtiter plates. N. europaea cells were grown in the presence of an ammonium source, and the potential of putative nitrification inhibitors to inhibit the production of nitrite (NO2) was measured relative to untreated cells.
A summary of selected compounds initially found to either work or not work as nitrification inhibitors is detailed in Table 1 below.

[3] = relative to table salt; cited from earlier work
[4] = test system: rats; conditions: female rats; cited from earlier work
[5] = test system: nitrification in the soil; experiment: Soil column study with static gas chambers (Study 2-14): nitrate-N and N2O emissions; conditions: 10 kg/ha sprayed to soil surface, soil column
Protocol: To determine the effect of treating the soil with 4-Ethynylanisole on nitrification rate and nitrous oxide emissions, soil column studies with static gas chambers were conducted. The experiment was conducted in cylindrical PVC containers (Diameter=186 mm, Height=240 mm). The containers were filled with soil to half of the container's height (120 mm), leaving 120 mm headspace. The soil was Templeton sandy loam collected from Lincoln University Research Dairy Farm. It was screened using a 5 mm sieve and air-dried to the required moisture level and packed to bulk density of 1 g/cm3.
The experiment was conducted under controlled conditions. The temperature of the soil columns were maintained at around 12° C. by using a water bath to control the temperature.
The treatments included Control (Water), Control (animal urine), Control (urine+DMSO), Control (urine+DCD at 10 kg/ha) and urine+4-Ethynylanisole (10 kg/ha) in DMSO. Synthetic cow urine was applied at 700 kg N/ha (comprising about 87% urea-N and 13% glycine-N), and 4-Ethynylanisole was applied at 10 kg/ha. There were two sets of cores for each treatment, one set were fitted with static gas chambers with removable lids for nitrous oxide sampling, and the other set used for soil sampling. The urine was sprayed to the surface of the soil simulating urine deposition by a grazing animal; DMSO, or DCD or 4-Ethynylanisole mixed with DMSO was also sprayed onto the urine treated soils to simulate the treatment of urine patches. Nitrous oxide gas measurements followed these treatments—as is detailed further below.
For the soil columns that were set up for taking soil samples for analysis of mineral nitrogen, the different treatments were mixed with the soil for soil sampling. Soil moisture was adjusted to 100% field capacity (FC) and maintained between 80 and 100% FC over the duration of the experiment.
Nitrous oxide (N2O) gas sampling was conducted twice a week using the standard procedure (Di et al., 2007). Vials were evacuated prior to sampling. Three gas samples were taken with 20 minute intervals between each sampling. Sampling frequency was reduced to once a week when N2O fluxes decreased in intensity.
Soil sampling was conducted on Day 1, 7, 14, 30, and 60. The soil samples were analysed for mineral nitrogen.

melting point [°C]	Structure (SMILES)	nitrate-N concentration in the soil compared with urine alone or urine+DMSO ([1]; 1 kg/ha)	nitrate-N concentration in the soil compared with urine alone or urine+DMSO ([1]; 2 kg/ha)	Inhib(%) [2] [%]	toxicity rating [3]	oral LD50 [4]	N2O—N emissions lower than urine alone control [5] [%]
51.7 to 53.1	C#Cc1ccc(OC)nn1 [3-Ethynyl-6-methoxypyridazine]	lower nitrate-N concentrations	lower nitrate-N concentrations				
82.3 to 83.1	C#Cc1cnc(OC)nc1 [5-Ethynyl-2-methoxypyrimidine]	lower nitrate-N concentrations	lower nitrate-N concentrations	100			
	N#CNC(=N)N [DCD, dicyandiamide]				10 times less toxic than table salt	greater than 30,000 mg kg^−1 body weight	43.4
